Drawing on US10730858B2, “Lactam, cyclic urea and carbamate, and triazolone derivatives as potent and selective rock inhibitors” (BRISTOL-MYERS SQUIBB COMPANY, priority 2016, dated 2020), this text covers IC50 for 32 compounds.

For this assay, the target named is ROCK2 (Homo sapiens, UniProt O75116). The assay is described as follows: ROCK2 assay (Caliper LABCHIP peptide phosphorylation, kinase inhibition). The conditions noted are these: 5 μM ATP, 1.5 μM peptide substrate. It is filed as biochemical. Here is the method:
The effectiveness of compounds of the present invention as ROCK inhibitors can be determined in a 30 μL assay containing 20 mM HEPES, pH 7.5, 20 mM MgCl2, 0.015% Brij-35, 4 mM DTT, 5 μM ATP and 1.5 μM peptide substrate (FITC-AHA-AKRRRLSSLRA-OH) (SEQ ID NO. 1). Compounds were dissolved in DMSO so that the final concentration of DMSO was <2%, and the reaction was initiated with Rho kinase variants. After incubation, the reaction was terminated by the addition of EDTA and the phosphorylated and non-phosphorylated peptides separated using a LABCHIP® 3000 Reader (Caliper Life Sciences). […] Compounds were tested in dose-response format, and the inhibition of kinase activity was calculated at each concentration of compound. The inhibition data were fit using a curve-fitting program to determine the IC50; i.e., the concentration of compound required to inhibit 50% of kinase activity.
Representative Examples were tested in the ROCK2 assay described above and found having ROCK2 inhibitory activity. The ranges of the ROCK2 IC50 values are as follows: ROCK2 IC50: ++++ (<10 nM) +++ (10-100 nM) ++ (100-500 nM) + (500-2000 nM)

By IC50 is commonly meant the concentration needed to halve the response being measured. A higher IC50 goes with weaker potency in that assay.

ROCK2, sequence (O75116 whole entry, species assumed): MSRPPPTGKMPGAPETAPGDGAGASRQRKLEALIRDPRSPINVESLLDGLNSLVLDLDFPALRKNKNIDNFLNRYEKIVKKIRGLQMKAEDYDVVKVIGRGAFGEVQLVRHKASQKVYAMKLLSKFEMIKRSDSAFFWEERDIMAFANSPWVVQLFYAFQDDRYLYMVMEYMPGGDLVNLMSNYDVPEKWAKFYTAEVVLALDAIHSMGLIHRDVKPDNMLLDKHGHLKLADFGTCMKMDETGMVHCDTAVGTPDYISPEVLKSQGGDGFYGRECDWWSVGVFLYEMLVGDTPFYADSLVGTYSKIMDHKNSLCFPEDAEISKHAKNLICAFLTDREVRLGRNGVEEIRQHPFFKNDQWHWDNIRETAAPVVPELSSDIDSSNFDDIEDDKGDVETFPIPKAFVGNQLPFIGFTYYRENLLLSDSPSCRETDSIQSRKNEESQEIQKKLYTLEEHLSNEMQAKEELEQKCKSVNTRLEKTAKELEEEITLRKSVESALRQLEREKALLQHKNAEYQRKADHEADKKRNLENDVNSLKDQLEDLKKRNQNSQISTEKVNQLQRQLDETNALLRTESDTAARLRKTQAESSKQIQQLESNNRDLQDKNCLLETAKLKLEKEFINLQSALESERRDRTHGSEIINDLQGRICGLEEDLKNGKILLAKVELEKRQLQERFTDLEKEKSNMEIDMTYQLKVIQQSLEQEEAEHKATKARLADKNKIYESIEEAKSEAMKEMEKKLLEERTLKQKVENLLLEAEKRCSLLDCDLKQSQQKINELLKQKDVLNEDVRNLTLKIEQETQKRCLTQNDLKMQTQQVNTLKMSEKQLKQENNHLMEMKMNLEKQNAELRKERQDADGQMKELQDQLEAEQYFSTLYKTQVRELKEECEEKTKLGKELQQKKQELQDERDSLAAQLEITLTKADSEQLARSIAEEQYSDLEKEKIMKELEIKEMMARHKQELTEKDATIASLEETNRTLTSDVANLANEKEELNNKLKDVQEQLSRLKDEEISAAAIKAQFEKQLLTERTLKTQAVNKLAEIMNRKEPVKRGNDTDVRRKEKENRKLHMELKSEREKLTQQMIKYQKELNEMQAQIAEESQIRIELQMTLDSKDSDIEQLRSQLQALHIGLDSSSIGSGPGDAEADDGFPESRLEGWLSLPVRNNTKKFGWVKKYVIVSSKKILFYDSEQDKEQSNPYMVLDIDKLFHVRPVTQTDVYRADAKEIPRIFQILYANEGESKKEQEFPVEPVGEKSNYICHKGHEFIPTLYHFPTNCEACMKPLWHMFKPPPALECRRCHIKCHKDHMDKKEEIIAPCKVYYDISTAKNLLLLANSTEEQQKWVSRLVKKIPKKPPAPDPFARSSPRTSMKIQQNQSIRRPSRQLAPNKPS

For `O=C1OCC(c2ccccc2)N1c1ccc(-c2n[nH]c(=O)c3ccccc23)cc1` (centres unmarked) [Example 14, 4-[4-(2-oxo-4-phenyl-1,3-oxazolidin-3-yl)phenyl]-1,2-dihydrophthalazin-1-one], the IC50 lay in the range of 100 to 500 nM. With `O=C1OC(c2ccccc2)CN1c1ccc(-c2n[nH]c(=O)c3ccccc23)cc1` (centres unmarked) [Example 15, 4-[4-(2-oxo-5-phenyl-1,3-oxazolidin-3-yl)phenyl]-1,2-dihydrophthalazin-1-one] the figure was 10 to 100 nM.

As for `CC(C)(C)OC(=O)NCC1CN(c2ccc(-c3n[nH]c(=O)c4ccccc34)cc2)C(=O)O1` (centres unmarked) [Example 16, tert-butyl N-({2-oxo-3-[4-(4-oxo-3,4-dihydrophthalazin-1-yl)phenyl]-1,3-oxazolidin-5-yl}methyl)carbamate], the IC50 is 500 to 2000 nM. For `CCCC1CN(c2ccc(-c3n[nH]c(=O)c4ccccc34)cc2)C(=O)O1` (centres unmarked) [Example 17, 4-[4-(2-oxo-5-propyl-1,3-oxazolidin-3-yl)phenyl]-1,2-dihydrophthalazin-1-one], the IC50 is 100 to 500 nM.

`O=C(NCC1CN(c2ccc(-c3n[nH]c(=O)c4ccccc34)cc2)C(=O)O1)c1ccccc1` (centres unmarked) [Example 18, N-({2-oxo-3-[4-(4-oxo-3,4-dihydrophthalazin-1-yl)phenyl]-1,3-oxazolidin-5-yl}methyl)benzamide] registered a 50% inhibitory concentration (IC50) of 100 to 500 nM. As for `O=C1OC(c2ccc(F)cc2)CN1c1ccc(-c2n[nH]c(=O)c3ccccc23)cc1` (centres unmarked) [Example 19, 4-{4-[5-(4-fluorophenyl)-2-oxo-1,3-oxazolidin-3-yl]phenyl}-1,2-dihydrophthalazin-1-one], the figure is 500 to 2000 nM; as for `CS(=O)(=O)c1ccc(CC2CN(c3ccc(-c4n[nH]c(=O)c5ccccc45)cc3)C(=O)O2)cc1` (centres unmarked) [Example 20, 4-(4-{5-[(4-methanesulfonylphenyl)methyl]-2-oxo-1,3-oxazolidin-3-yl}phenyl)-1,2-dihydrophthalazin-1-one], 100 to 500 nM; as for `O=C1OC2CCCCC2N1c1ccc(-c2n[nH]c(=O)c3ccccc23)cc1` (centres unmarked) [Example 21, 4-[4-(2-oxo-octahydro-1,3-benzoxazol-3-yl)phenyl]-1,2-dihydrophthalazin-1-one], 500 to 2000 nM. In the case of `O=C1OC(C(O)(c2ccccc2)C(F)(F)F)CN1c1ccc(-c2n[nH]c(=O)c3ccccc23)cc1` (centres unmarked) [Example 22, 4-{4-[2-oxo-5-(2,2,2-trifluoro-1-hydroxy-1-phenylethyl)-1,3-oxazolidin-3-yl]phenyl}-1,2-dihydrophthalazin-1-one], the concentration for half-maximal inhibition (IC50) lay in the range of 500 to 2000 nM. The compound `C[C@@H]1OC(=O)N(c2ccc(-c3n[nH]c(=O)c4ccccc34)cc2)[C@@H]1c1ccccc1` [Example 23, 4-{4-[(4R,5S)-5-methyl-2-oxo-4-phenyl-1,3-oxazolidin-3-yl]phenyl}-1,2-dihydrophthalazin-1-one] returned a 50% inhibitory concentration (IC50) of 500 to 2000 nM. `O=C1C(N2CCOCC2)CCN1c1ccc(-c2n[nH]c(=O)c3ccccc23)cc1` (centres unmarked) [Example 24, 4-{4-[3-(morpholin-4-yl)-2-oxopyrrolidin-1-yl]phenyl}-1,2-dihydrophthalazin-1-one] returned an IC50 of 500 to 2000 nM. With `O=C1C(NCc2ccccc2)CCN1c1ccc(-c2n[nH]c(=O)c3ccccc23)cc1` (centres unmarked) [Example 25, 4-{4-[3-(benzylamino)-2-oxopyrrolidin-1-yl]phenyl}-1,2-dihydrophthalazin-1-one] the figure was 500 to 2000 nM; with `COc1cccc(NC2CCN(c3ccc(-c4n[nH]c(=O)c5ccccc45)cc3)C2=O)c1` (centres unmarked) [Example 26, 4-(4-{3-[(3-methoxyphenyl)amino]-2-oxopyrrolidin-1-yl}phenyl)-1,2-dihydrophthalazin-1-one], 10 to 100 nM. With `O=C1C(Nc2ccccc2)CCN1c1ccc(-c2n[nH]c(=O)c3ccccc23)cc1` (centres unmarked) [Example 27, 4-{4-[2-oxo-3-(phenylamino)pyrrolidin-1-yl]phenyl}-1,2-dihydrophthalazin-1-one], the IC50 was 10 to 100 nM.

In turn, `O=C1C(NC2CCCC2)CCN1c1ccc(-c2n[nH]c(=O)c3ccccc23)cc1` (centres unmarked) [Example 28, 4-{4-[3-(cyclopentylamino)-2-oxopyrrolidin-1-yl]phenyl}-1,2-dihydrophthalazin-1-one] had a half-inhibitory concentration (IC50) of 500 to 2000 nM. Take `O=C1C(NC2Cc3ccccc3C2)CCN1c1ccc(-c2n[nH]c(=O)c3ccccc23)cc1` (centres unmarked) [Example 29, 4-(4-{3-[(2,3-dihydro-1H-inden-2-yl)amino]-2-oxopyrrolidin-1-yl}phenyl)-1,2-dihydrophthalazin-1-one]: the IC50 was in the range of 500 to 2000 nM.

In the case of `CCc1ccccc1NC1CCN(c2ccc(-c3n[nH]c(=O)c4ccccc34)cc2)C1=O` (centres unmarked) [Example 31, 4-(4-{3-[(2-ethylphenyl)amino]-2-oxopyrrolidin-1-yl}phenyl)-1,2-dihydrophthalazin-1-one], the concentration for half-maximal inhibition (IC50) was 10 to 100 nM. As for `COc1cc(F)cc(NC2CCN(c3ccc(-c4n[nH]c(=O)c5ccccc45)cc3)C2=O)c1` (centres unmarked) [Example 32, 4-(4-{3-[(3-fluoro-5-methoxyphenyl)amino]-2-oxopyrrolidin-1-yl}phenyl)-1,2-dihydrophthalazin-1-one], the figure is 10 to 100 nM; as for `O=C1C(Nc2ccc3c(c2)OCO3)CCN1c1ccc(-c2n[nH]c(=O)c3ccccc23)cc1` (centres unmarked) [Example 33, 4-(4-{3-[(2H-1,3-benzodioxol-5-yl)amino]-2-oxopyrrolidin-1-yl}phenyl)-1,2-dihydrophthalazin-1-one], 10 to 100 nM.

`O=C1C(Nc2ccc3c(c2)OCCCO3)CCN1c1ccc(-c2n[nH]c(=O)c3ccccc23)cc1` (centres unmarked) [Example 34, 4-(4-{3-[(3,4-dihydro-2H-1,5-benzodioxepin-7-yl)amino]-2-oxopyrrolidin-1-yl}phenyl)-1,2-dihydrophthalazin-1-one] registered a concentration for half-maximal inhibition (IC50) of 10 to 100 nM. `Cn1nc(C2CC2)cc1NC1CCN(c2ccc(-c3n[nH]c(=O)c4ccccc34)cc2)C1=O` (centres unmarked) [Example 35, 4-(4-{3-[(3-cyclopropyl-1-methyl-1H-pyrazol-5-yl)amino]-2-oxopyrrolidin-1-yl}phenyl)-1,2-dihydrophthalazin-1-one] showed a half-maximal inhibitory concentration (IC50) of 10 to 100 nM. With `Cc1[nH]nc(C2CC2)c1NC1CCN(c2ccc(-c3n[nH]c(=O)c4ccccc34)cc2)C1=O` (centres unmarked) [Example 36, 4-(4-{3-[(3-cyclopropyl-5-methyl-1H-pyrazol-4-yl)amino]-2-oxopyrrolidin-1-yl}phenyl)-1,2-dihydrophthalazin-1-one] the figure was 10 to 100 nM. With `COc1ccc(F)c(NC2CCN(c3ccc(-c4n[nH]c(=O)c5ccccc45)cc3)C2=O)c1` (centres unmarked) [Example 37, 4-(4-{3-[(2-fluoro-5-methoxyphenyl)amino]-2-oxopyrrolidin-1-yl}phenyl)-1,2-dihydrophthalazin-1-one] the figure was 10 to 100 nM; with `COc1cc(C)cc(NC2CCN(c3ccc(-c4n[nH]c(=O)c5ccccc45)cc3)C2=O)c1` (centres unmarked) [Example 38, 4-(4-{3-[(3-methoxy-5-methylphenyl)amino]-2-oxopyrrolidin-1-yl}phenyl)-1,2-dihydrophthalazin-1-one], 10 to 100 nM. Turning to `O=C1C(Nc2cnn(-c3ccccc3)c2)CCN1c1ccc(-c2n[nH]c(=O)c3ccccc23)cc1` (centres unmarked) [Example 39, 4-(4-{2-oxo-3-[(1-phenyl-1H-pyrazol-4-yl)amino]pyrrolidin-1-yl}phenyl)-1,2-dihydrophthalazin-1-one], the IC50 was 10 to 100 nM. `COc1c(F)ccc(NC2CCN(c3ccc(-c4n[nH]c(=O)c5ccccc45)cc3)C2=O)c1F` (centres unmarked) [Example 40, 4-(4-{3-[(2,4-difluoro-3-methoxyphenyl)amino]-2-oxopyrrolidin-1-yl}phenyl)-1,2-dihydrophthalazin-1-one]: the 50% inhibitory concentration (IC50) was 10 to 100 nM.

`O=c1[nH]nc(-c2ccc(-n3ncn(Cc4ccccc4)c3=O)cc2)c2ccccc12` [Example 41, 4-[4-(4-benzyl-5-oxo-4,5-dihydro-1H-1,2,4-triazol-1-yl)phenyl]-1,2-dihydrophthalazin-1-one]: the IC50 is 100 to 500 nM.

`COc1cc(NC2CCN(c3ccc(-c4n[nH]c(=O)c5ccccc45)cc3)C2=O)ccc1F` (centres unmarked) [Example 42, 4-(4-{3-[(4-fluoro-3-methoxyphenyl)amino]-2-oxopyrrolidin-1-yl}phenyl)-1,2-dihydrophthalazin-1-one] registered a concentration for half-maximal inhibition (IC50) of 10 to 100 nM. Consider `CCOc1cccc(NC2CCN(c3ccc(-c4n[nH]c(=O)c5ccccc45)cc3)C2=O)c1` (centres unmarked) [Example 43, 4-(4-{3-[(3-ethoxyphenyl)amino]-2-oxopyrrolidin-1-yl}phenyl)-1,2-dihydrophthalazin-1-one], for which the IC50 is 10 to 100 nM. For the compound `COc1cccc([C@@H](C)NC2CCN(c3ccc(-c4n[nH]c(=O)c5ccccc45)cc3)C2=O)c1` (stereo partly drawn) [Example 44, 4-[4-(3-{[(1R)-1-(3-methoxyphenyl)ethyl]amino}-2-oxopyrrolidin-1-yl)phenyl]-1,2-dihydrophthalazin-1-one], the IC50 lay within 500 to 2000 nM.

Regarding `O=C1C(NCCc2ccccc2)CCN1c1ccc(-c2n[nH]c(=O)c3ccccc23)cc1` (centres unmarked) [Example 45, 4-(4-{2-oxo-3-[(2-phenylethyl)amino]pyrrolidin-1-yl}phenyl)-1,2-dihydrophthalazin-1-one], the half-inhibitory concentration (IC50) was in the range of 500 to 2000 nM.

Turning to `COc1cccc(Cn2cnn(-c3ccc(-c4n[nH]c(=O)c5ccccc45)cc3)c2=O)c1` [Example 46, 4-(4-{4-[(3-methoxyphenyl)methyl]-5-oxo-4,5-dihydro-1H-1,2,4-triazol-1-yl}phenyl)-1,2-dihydrophthalazin-1-one], the IC50 lay within 100 to 500 nM.
